# Measured values: patent US7772241B2, “Variolin derivatives and their use as antitumor agents” (Pharma Mar S.A., priority 2001, dated 2010)
# Assays:
# IGROV-ET = assay: Inhibition of cells growth by colorimetric (SRB) assay, IGROV-ET; settings: for GI50 / CC50: Homo sapiens, 48 h; for GI50: read-out: GI50 IGROV-ET, SRB assay, 48 hours exposure; for CC50: read-out: LC50 IGROV-ET, SRB assay, 48 hours exposure; for TGI IGROV-ET: SRB assay, 48 hours exposure
# Excerpt: (§1) The finality of these assays is to interrupt the growth of a “in vitro” tumor cell culture by means a continued exhibition of the cells to the sample to be testing.
# (§2) This form of the assay employs 96 well cell culture microplates of 9 mm diameter (Faircloth, 1988; Mosmann, 1983). Most of the cell lines are obtained from American Type Culture Collection (ATCC) derived from different human cancer types.
# (§3) Cells are maintained in RPMI 1640 10% FBS, supplemented with 0.1 g/l penicillin and 0.1 g/l streptomycin sulphate and then incubated at 37° C., 5% CO2 and 98% humidity. For the experiments, cells were harvested from subconfluent cultures using trypsin and resuspended in fresh medium before plating.
# (§4) Cells are seeded in 96 well microtiter plates, at 5×10^3 cells per well in aliquots of 195 μl medium, and they are allowed to attach to the plate surface by growing in drug free medium for 18 hours. Afterward, samples are added in aliquots of 5 μl in a ranging from 10 to 10^−8 μg/ml, dissolved in DMSO/EtOH/PBS (0.5:0.5:99). After 48 hours exposure, the antitumor effect are measured by the SRB methodology: cells are fixed by adding 50 μl of cold 50% (wt/vol) trichloroacetic acid (TCA) and incubating for 60 minutes at 4° C. Plates are washed with deionized water and dried. One hundred μl of SRB solution (0.4% wt/vol in 1% acetic acid) is added to each microtiter well and incubated for 10 minutes at room temperature. Unbound SRB is removed by washing with 1% acetic acid. Plates are air dried and bound stain is solubilized with Tris buffer. Optical densities are read on a automated spectrophotometric plate reader at a single wavelength of 490 nm.
# (§5) The values for mean +/−SD of data from triplicate wells are calculated. Some parameters for cellular responses can be calculated: GI=growth inhibition, TGI=total growth inhibition (cytostatic effect) and LC=cell killing (cytotoxic effect).
# SK-MEL-28 = assay: Inhibition of cells growth by colorimetric (SRB) assay, SK-MEL-28; settings: for GI50 / CC50: Homo sapiens, SK-MEL-28, 48 h; for GI50: read-out: GI50 MEL-28, SRB assay, 48 hours exposure; for CC50: read-out: LC50 MEL-28, SRB assay, 48 hours exposure; for TGI MEL-28: SRB assay, 48 hours exposure
# Excerpt: as §1, §2, §3, §4, §5
# DU-145 = assay: Inhibition of cells growth by colorimetric (SRB) assay, DU-145; settings: for GI50 / CC50: Homo sapiens, DU-145, 48 h; for GI50: read-out: GI50 DU-145, SRB assay, 48 hours exposure; for CC50: read-out: LC50 DU-145, SRB assay, 48 hours exposure; for TGI DU-145: SRB assay, 48 hours exposure
# Excerpt: as §1, §2, §3, §4, §5
# LoVo-Dox = assay: Inhibition of cells growth by colorimetric (SRB) assay, LoVo-Dox; settings: for GI50 / CC50: Homo sapiens, 48 h; for GI50: read-out: GI50 LOVO-DOX, SRB assay, 48 hours exposure; for CC50: read-out: LC50 LOVO-DOX, SRB assay, 48 hours exposure; for TGI LOVO-DOX: SRB assay, 48 hours exposure
# Excerpt: as §1, §2, §3, §4, §5
# HT-29 = assay: Inhibition of cells growth by colorimetric (SRB) assay, HT-29; settings: for GI50 / CC50: Homo sapiens, HT-29, 48 h; for GI50: read-out: GI50 HT-29, SRB assay, 48 hours exposure; for CC50: read-out: LC50 HT-29, SRB assay, 48 hours exposure; for TGI HT-29: SRB assay, 48 hours exposure
# Excerpt: as §1, §2, §3, §4, §5
# SK-OV-3 = assay: Inhibition of cells growth by colorimetric (SRB) assay, SK-OV-3; settings: for GI50 / CC50: Homo sapiens, SK-OV-3, 48 h; for GI50: read-out: GI50 SKOV-3, SRB assay, 48 hours exposure; for CC50: read-out: LC50 SKOV-3, SRB assay, 48 hours exposure; for TGI SKOV-3: SRB assay, 48 hours exposure
# Excerpt: as §1, §2, §3, §4, §5
# LoVo = assay: Inhibition of cells growth by colorimetric (SRB) assay, LoVo; settings: for GI50 / CC50: Homo sapiens, LoVo, 48 h; for GI50: read-out: GI50 LOVO, SRB assay, 48 hours exposure; for CC50: read-out: LC50 LOVO, SRB assay, 48 hours exposure; for TGI LOVO: SRB assay, 48 hours exposure
# Excerpt: as §1, §2, §3, §4, §5
# LNCaP = assay: Inhibition of cells growth by colorimetric (SRB) assay, LNCaP; settings: for GI50 / CC50: Homo sapiens, LNCaP, 48 h; for GI50: read-out: GI50 LN-caP, SRB assay, 48 hours exposure; for CC50: read-out: LC50 LN-caP, SRB assay, 48 hours exposure; for TGI LN-caP: SRB assay, 48 hours exposure
# Excerpt: as §1, §2, §3, §4, §5
# PANC-1 = assay: Inhibition of cells growth by colorimetric (SRB) assay, PANC-1; settings: for GI50 / CC50: Homo sapiens, PANC-1, 48 h; for GI50: read-out: GI50 PANC-1, SRB assay, 48 hours exposure; for CC50: read-out: LC50 PANC-1, SRB assay, 48 hours exposure; for TGI PANC-1: SRB assay, 48 hours exposure
# Excerpt: as §1, §2, §3, §4, §5
# IGROV-1 = assay: Inhibition of cells growth by colorimetric (SRB) assay, IGROV-1; settings: for GI50 / CC50: Homo sapiens, IGROV-1, 48 h; for GI50: read-out: GI50 IGROV, SRB assay, 48 hours exposure; for CC50: read-out: LC50 IGROV, SRB assay, 48 hours exposure; for TGI IGROV: SRB assay, 48 hours exposure
# Excerpt: as §1, §2, §3, §4, §5
# K-562 = assay: Inhibition of cells growth by colorimetric (SRB) assay, K-562; settings: for GI50 / CC50: Homo sapiens, K562, 48 h; for GI50: read-out: GI50 K-562, SRB assay, 48 hours exposure; for CC50: read-out: LC50 K-562, SRB assay, 48 hours exposure; for TGI K-562: SRB assay, 48 hours exposure
# Excerpt: as §1, §2, §3, §4, §5
# A-549 = assay: Inhibition of cells growth by colorimetric (SRB) assay, A-549; settings: for GI50 / CC50: Homo sapiens, A549, 48 h; for GI50: read-out: GI50 A-549, SRB assay, 48 hours exposure; for CC50: read-out: LC50 A-549, SRB assay, 48 hours exposure; for TGI A-549: SRB assay, 48 hours exposure
# Excerpt: as §1, §2, §3, §4, §5
Structure (SMILES),GI50 (IGROV-ET) [µM],CC50 (IGROV-ET) [µM],TGI IGROV-ET (IGROV-ET),GI50 (SK-MEL-28) [µM],CC50 (SK-MEL-28) [µM],TGI MEL-28 (SK-MEL-28),GI50 (DU-145) [µM],CC50 (DU-145) [µM],TGI DU-145 (DU-145),GI50 (LoVo-Dox) [µM],CC50 (LoVo-Dox) [µM],TGI LOVO-DOX (LoVo-Dox),GI50 (HT-29) [µM],CC50 (HT-29) [µM],TGI HT-29 (HT-29),GI50 (SK-OV-3) [µM],CC50 (SK-OV-3) [µM],TGI SKOV-3 (SK-OV-3),GI50 (LoVo) [µM],CC50 (LoVo) [µM],also measured
CC(C)c1c2cccnc2n2c(N)nccc12 [Compound 66],9.81,39.8,1.98E−05,8.84,39.6,1.87E−05,10,≥ 44.2,2.59E−05,2.22,≥ 44.2,4.42E−05,17.9,≥ 44.2,4.42E−05,15.7,≥ 44.2,3.04E−05,17.1,≥ 44.2,TGI LOVO (LoVo): 4.42E−05; GI50 (LNCaP): 12.5 µM; CC50 (LNCaP): ≥ 44.2 µM; TGI LN-caP (LNCaP): 2.55E−05; GI50 (PANC-1): 8 µM; CC50 (PANC-1): ≥ 44.2 µM; TGI PANC-1 (PANC-1): 2.16E−05; GI50 (IGROV-1): 9.99 µM; CC50 (IGROV-1): 30.4 µM; TGI IGROV (IGROV-1): 1.74E−05; GI50 (K-562): 21.6 µM; CC50 (K-562): ≥ 44.2 µM; TGI K-562 (K-562): 4.42E−05; GI50 (A-549): 16.1 µM; CC50 (A-549): ≥ 44.2 µM; TGI A-549 (A-549): 4.42E−05
Cl.Nc1nccc2c(-c3ccncn3)c3cccnc3n12 [Compound 71],1.04,31.9,2.75E−06,0.556,2.5,1.18E−06,0.75,33.5,2.31E−06,0.465,33.5,1.79E−06,1.1,33.5,3.35E−06,1.06,33.5,3.00E−06,0.318,33.5,TGI LOVO (LoVo): 1.84E−06; GI50 (LNCaP): 0.0502 µM; CC50 (LNCaP): 1.82 µM; TGI LN-caP (LNCaP): 2.15E−07; GI50 (PANC-1): 1.07 µM; CC50 (PANC-1): 33.5 µM; TGI PANC-1 (PANC-1): 3.78E−06; GI50 (IGROV-1): 0.797 µM; CC50 (IGROV-1): 4.15 µM; TGI IGROV (IGROV-1): 1.65E−06; GI50 (K-562): 1.7 µM; CC50 (K-562): 33.5 µM; TGI K-562 (K-562): 1.30E−05; GI50 (A-549): 1.1 µM; CC50 (A-549): 11.2 µM; TGI A-549 (A-549): 2.70E−06
Nc1nccc2c(-c3ccnc(O)n3)c3cccnc3n12 [Compound 80],2.48,35.9,9.45E−06,2.42,19.7,7.08E−06,1.81,35.9,8.70E−06,4.2,35.9,2.01E−05,2.45,35.9,3.59E−05,12.5,35.9,3.45E−05,4.06,35.9,TGI LOVO (LoVo): 1.48E−05; GI50 (LNCaP): 0.97 µM; CC50 (LNCaP): 2.79 µM; TGI LN-caP (LNCaP): 1.65E−06; GI50 (PANC-1): 8.41 µM; CC50 (PANC-1): 35.9 µM; TGI PANC-1 (PANC-1): 2.42E−05; GI50 (IGROV-1): 1.55 µM; CC50 (IGROV-1): 24.8 µM; TGI IGROV (IGROV-1): 3.26E−06; GI50 (K-562): 9.88 µM; CC50 (K-562): 35.9 µM; TGI K-562 (K-562): 3.59E−05; GI50 (A-549): 7.73 µM; CC50 (A-549): 32.7 µM; TGI A-549 (A-549): 1.59E−05
